According to ChEMBL document CHEMBL3046735, “11-Chloro-3-methyl-3H-imidazo[4,5-a]acridine (CMIA) as a potent and selective antimicrobial agent against clinical isolates of highly antibiotic-resistant Acinetobacter baumannii” (Med Chem Res, 2012):
Converted amounts (≈) assume the structure as drawn.

Legend:
Staphylococcus aureus [1] = test: Bactericidal activity against Staphylococcus aureus wound isolate after 24 hr by NCCLS dilution tube method; assay type: functional
Escherichia coli [2] = test: Bactericidal activity against Escherichia coli bronchi isolate after 24 hr by NCCLS dilution tube method; assay type: functional
Escherichia coli [3] = test: Bactericidal activity against Escherichia coli urine isolate after 24 hr by NCCLS dilution tube method; assay type: functional
Acinetobacter baumannii [4] = test: Bactericidal activity against multidrug-resistant Acinetobacter baumannii urine isolate after 24 hr by NCCLS dilution tube method; assay type: functional
Acinetobacter baumannii [5] = test: Bactericidal activity against multidrug-resistant Acinetobacter baumannii wound isolate after 24 hr by NCCLS dilution tube method; assay type: functional
Acinetobacter baumannii [6] = test: Bactericidal activity against multidrug-resistant Acinetobacter baumannii bronchi isolate after 24 hr by NCCLS dilution tube method; assay type: functional
Klebsiella pneumoniae [7] = test: Bactericidal activity against Klebsiella pneumoniae PTCC 1053 after 24 hr by NCCLS dilution tube method; assay type: functional; conditions: PTCC 1053, 24 h
Escherichia coli [8] = test: Bactericidal activity against Escherichia coli PTCC 1338 after 24 hr by NCCLS dilution tube method; assay type: functional; conditions: PTCC 1338, 24 h
Pseudomonas aeruginosa [9] = test: Bactericidal activity against Pseudomonas aeruginosa PTCC 1431 after 24 hr by NCCLS dilution tube method; assay type: functional; conditions: PTCC 1431, 24 h
Staphylococcus aureus [10] = test: Bactericidal activity against Staphylococcus aureus PTCC 1074 after 24 hr by NCCLS dilution tube method; assay type: functional; conditions: PTCC 1074, 24 h
[11] = Octanol-water partition coefficient, log D of the compound at pH 7.4 after 6 hr by shake flask method; assay type: physicochemical
Klebsiella pneumoniae [12] = test: Bactericidal activity against Klebsiella pneumoniae wound isolate after 24 hr by NCCLS dilution tube method; assay type: functional
Klebsiella pneumoniae [13] = test: Bactericidal activity against Klebsiella pneumoniae urine isolate after 24 hr by NCCLS dilution tube method; assay type: functional
Pseudomonas aeruginosa [14] = test: Bactericidal activity against Pseudomonas aeruginosa wound isolate after 24 hr by NCCLS dilution tube method; assay type: functional
Pseudomonas aeruginosa [15] = test: Bactericidal activity against Pseudomonas aeruginosa urine isolate after 24 hr by NCCLS dilution tube method; assay type: functional
[16] = system: Staphylococcus saprophyticus; test: Bactericidal activity against Staphylococcus saprophyticus bronchi isolate after 24 hr by NCCLS dilution tube method; assay type: functional
[17] = system: Staphylococcus epidermidis; test: Bactericidal activity against Staphylococcus epidermidis eye isolate after 24 hr by NCCLS dilution tube method; assay type: functional
Staphylococcus aureus [18] = test: Bactericidal activity against Staphylococcus aureus urine isolate after 24 hr by NCCLS dilution tube method; assay type: functional

Row | logD at 6 h [11] | SMILES | MBC (Staphylococcus aureus [1]) [µg/mL] | MBC (Escherichia coli [2]) [µg/mL] | MBC (Escherichia coli [3]) [µg/mL] | MBC (Acinetobacter baumannii [4]) [µg/mL] | MBC (Acinetobacter baumannii [5]) [µg/mL] | MBC (Acinetobacter baumannii [6]) [µg/mL] | MBC (Klebsiella pneumoniae [7]) [µg/mL] | MBC (Escherichia coli [8]) [µg/mL] | MBC (Pseudomonas aeruginosa [9]) [µg/mL] | MBC (Staphylococcus aureus [10]) [µg/mL] | MBC (Klebsiella pneumoniae [12]) [µg/mL] | MBC (Klebsiella pneumoniae [13]) [µg/mL] | MBC (Pseudomonas aeruginosa [14]) [µg/mL] | MBC (Pseudomonas aeruginosa [15]) [µg/mL] | MBC [16] [µg/mL] | MBC [17] [µg/mL] | MBC (Staphylococcus aureus [18]) [µg/mL]
1 | 1.09 | CCCn1cnc2c3c(Cl)c4ccccc4nc3ccc21 |  |  |  |  |  |  | 25 (≈ 84.5 µM) | 25 (≈ 84.5 µM) | > 100 | 6.25 (≈ 21.1 µM) |  |  |  |  |  |  | 
2 | 1.48 | CCCCCn1cnc2c3c(Cl)c4ccccc4nc3ccc21 |  |  |  |  |  |  | 25 (≈ 77.2 µM) | 50 (≈ 154 µM) | > 100 | 12.5 (≈ 38.6 µM) |  |  |  |  |  |  | 
3 |  | CC1(C)S[C@@H]2[C@H](NC(=O)[C@H](N)c3ccc(O)cc3)C(=O)N2[C@H]1C(=O)O [AMOXICILLIN] | > 100 | > 100 | 76.2 (≈ 209 µM) | > 100 | > 100 | > 100 |  |  |  |  | > 100 | > 100 | > 100 | > 100 | > 100 | > 100 | > 100
4 |  | C=CC1=C(C(=O)O)N2C(=O)[C@@H](NC(=O)/C(=N\OCC(=O)O)c3csc(N)n3)[C@H]2SC1 [CEFIXIME] | 33.1 (≈ 73 µM) | 23.1 (≈ 50.9 µM) | 12.1 (≈ 26.7 µM) | 75 (≈ 165 µM) | 82.8 (≈ 183 µM) | 87.5 (≈ 193 µM) |  |  |  |  | 44.6 (≈ 98.4 µM) | 20.8 (≈ 45.9 µM) | 96.9 (≈ 214 µM) | 20 (≈ 44.1 µM) | 24.5 (≈ 54 µM) | 28.7 (≈ 63.3 µM) | 45.2 (≈ 99.7 µM)
5 |  | CO/N=C(\C(=O)N[C@@H]1C(=O)N2C(C(=O)O)=C(COC(C)=O)CS[C@H]12)c1csc(N)n1 [CEFOTAXIME] | 12.7 (≈ 27.9 µM) | 24.5 (≈ 53.8 µM) | 17.3 (≈ 38 µM) | 90.6 (≈ 199 µM) | 95.8 (≈ 210 µM) | 96.9 (≈ 213 µM) |  |  |  |  | 51.8 (≈ 114 µM) | 25 (≈ 54.9 µM) | 81.2 (≈ 178 µM) | 16.3 (≈ 35.8 µM) | 95 (≈ 209 µM) | 75 (≈ 165 µM) | 77.2 (≈ 169 µM)
6 |  | CC(C)(O/N=C(\C(=O)N[C@@H]1C(=O)N2C(C(=O)[O-])=C(C[n+]3ccccc3)CS[C@H]12)c1csc(N)n1)C(=O)O [CEFTAZIDIME] | 63.5 (≈ 116 µM) | 45.4 (≈ 83.1 µM) | 14.4 (≈ 26.3 µM) | 93.7 (≈ 171 µM) | 91.7 (≈ 168 µM) | 90.6 (≈ 166 µM) |  |  |  |  | 92.8 (≈ 170 µM) | 22.9 (≈ 41.9 µM) | 90.6 (≈ 166 µM) | 43.8 (≈ 80.1 µM) | 82.4 (≈ 151 µM) | 73.7 (≈ 135 µM) | 80.2 (≈ 147 µM)
7 |  | NC[C@H]1O[C@H](O[C@H]2[C@H](O)[C@@H](O[C@H]3O[C@H](CO)[C@@H](O)[C@H](N)[C@H]3O)[C@H](N)C[C@@H]2N)[C@H](O)[C@@H](O)[C@@H]1O [KANAMYCIN] | 17.9 (≈ 36.9 µM) | 85.5 (≈ 176 µM) | 84.4 (≈ 174 µM) | > 100 | > 100 | > 100 |  |  |  |  | 16 (≈ 33 µM) | 12.5 (≈ 25.8 µM) | 48.4 (≈ 99.9 µM) | 47.9 (≈ 98.9 µM) | 40 (≈ 82.6 µM) | 25 (≈ 51.6 µM) | 55.1 (≈ 114 µM)
8 |  | CCn1cc(C(=O)O)c(=O)c2ccc(C)nc21 [NALIDIXIC ACID] | 81.6 (≈ 351 µM) | 22.7 (≈ 97.7 µM) | 24 (≈ 103 µM) | > 100 | > 100 | > 100 |  |  |  |  | 25.9 (≈ 112 µM) | 29.1 (≈ 125 µM) | > 100 | > 100 | > 100 | > 100 | > 100
9 |  | CCn1cc(C(=O)O)c(=O)c2cc(F)c(N3CCNCC3)cc21 [NORFLOXACIN] | 9.8 (≈ 30.7 µM) | 12.2 (≈ 38.2 µM) | 7.3 (≈ 22.9 µM) | 62.5 (≈ 196 µM) | 41.7 (≈ 131 µM) | 37.5 (≈ 117 µM) |  |  |  |  | 50 (≈ 157 µM) | 11.5 (≈ 36 µM) | 25.8 (≈ 80.8 µM) | 13.7 (≈ 42.9 µM) | 50 (≈ 157 µM) | 75 (≈ 235 µM) | 11.5 (≈ 36 µM)
10 |  | CN(C)[C@@H]1C(O)=C(C(N)=O)C(=O)[C@@]2(O)C(O)=C3C(=O)c4c(O)cccc4[C@@](C)(O)[C@H]3C[C@@H]12 [TETRACYCLINE] | 12.5 (≈ 28.1 µM) |  | 20.4 (≈ 45.9 µM) | 87.5 (≈ 197 µM) |  |  |  |  |  |  | 30.3 (≈ 68.2 µM) | 26 (≈ 58.5 µM) | 54.7 (≈ 123 µM) | 21.2 (≈ 47.7 µM) |  | 81.2 (≈ 183 µM) | 26.3 (≈ 59.2 µM)
11 |  | NC[C@H]1O[C@H](O[C@H]2[C@H](O)[C@@H](O[C@H]3O[C@H](CO)[C@@H](O)[C@H](N)[C@H]3O)[C@H](N)C[C@@H]2N)[C@H](N)C[C@@H]1O [TOBRAMYCIN] | 17.3 (≈ 37 µM) | 74 (≈ 158 µM) | 64.3 (≈ 138 µM) | 78.1 (≈ 167 µM) | 83.3 (≈ 178 µM) | 68 (≈ 145 µM) |  |  |  |  | 24.1 (≈ 51.5 µM) | 28.1 (≈ 60.1 µM) | 26.5 (≈ 56.7 µM) | 13.7 (≈ 29.3 µM) | 25 (≈ 53.5 µM) | 50 (≈ 107 µM) | 11.8 (≈ 25.2 µM)

Row | SMILES | logD at 6 h [11] | MBC (Staphylococcus aureus [1]) [µg/mL] | MBC (Escherichia coli [2]) [µg/mL] | MBC (Escherichia coli [3]) [µg/mL] | MBC (Acinetobacter baumannii [4]) [µg/mL] | MBC (Acinetobacter baumannii [5]) [µg/mL] | MBC (Acinetobacter baumannii [6]) [µg/mL] | MBC (Klebsiella pneumoniae [7]) [µg/mL] | MBC (Escherichia coli [8]) [µg/mL] | MBC (Pseudomonas aeruginosa [9]) [µg/mL] | MBC (Staphylococcus aureus [10]) [µg/mL] | MBC (Klebsiella pneumoniae [12]) [µg/mL] | MBC (Klebsiella pneumoniae [13]) [µg/mL] | MBC (Pseudomonas aeruginosa [14]) [µg/mL] | MBC (Pseudomonas aeruginosa [15]) [µg/mL] | MBC [16] [µg/mL] | MBC [17] [µg/mL] | MBC (Staphylococcus aureus [18]) [µg/mL]
12 | Cn1cnc2c3c(Cl)c4ccccc4nc3ccc21 | 0.52 | 72.3 (≈ 270 µM) | 89.3 (≈ 334 µM) | 56.4 (≈ 211 µM) | 10.9 (≈ 40.7 µM) | 2 (≈ 7.47 µM) | 4.7 (≈ 17.6 µM) | 12.5 (≈ 46.7 µM) | 6.25 (≈ 23.3 µM) | 75 (≈ 280 µM) | 3.1 (≈ 11.6 µM) | 85.7 (≈ 320 µM) | 47.9 (≈ 179 µM) | 75 (≈ 280 µM) | 85 (≈ 317 µM) | 93.7 (≈ 350 µM) | 73.7 (≈ 275 µM) | 91 (≈ 340 µM)
